The subject of assay [1] is ventricular myocytes (type 2 ryanodine receptor). Description: Anti-arrhythmic properties in isolated ventricular myocytes (calcium transients and cell contraction, IonOptix). It counts as cell-based, murine. Conditions: 10 nM isoproterenol; for anti-arrhythmic properties (ryanodine dependent arrhythmic cells): VB574 10 nM, 100 nM or 1 μM, compound IV 1 μM, 1 Hz stimulation. The protocol:
Compounds 20,21,22-trinor-4(RS)-4-F4t-NeuroP (compound of Formula III, VB574) and monohydroxylated derivative of 4-F4t-NeuroP (Compound IV) were evaluated for their anti-arrhythmic properties. Calcium transients and cell contraction was measured by the photometric system ionOptix®.
The photometric system IonOptix® can provide real-time, simultaneous acquisition of fluorescence photometry with sarcomere length measurements. For the study of isolated myocytes, the system includes a pacemaker that offers full control of the stimulation pulse duration, the frequency and the voltage. Thus, the photometric system IonOptix® puts in correlation the calcium transients and the shortening of the electrically stimulated myocytes (1 Hz, 20 V, FIG. 7). Calcium was studied by the use of a ratiometric fluorescent calcium probe (indo-1-AM, excitation wavelength 360±10 nm, emission wavelength at 405±10 nm and 485±10 nm).
To measure the intracellular calcium, the first step was to bring ventricular myocytes load into contact with an amount of indo-1-AM. To make it liposoluble, indo-1 was esterified on its carboxylic functions to give indo-1-AM. Once present in the cell, esterases allow the release of Indo-1 carboxylic functions enabling it to bind to the intracellular calcium. The incorporation time was predetermined to 30 minutes. This time was chosen following experiments using different times of incubation and 30 minutes was the time giving a good ratio/noise ratio and no obvious perturbation of cellular calcium homeostasis. The incubation time of the probe is critical because too low load generates a weak signal while excessive exposure will excessively increase the buffering capacity of the cytoplasm for calcium.
Once loaded and the cells arranged on the measuring system by means of a tank containing Tyrode salt solution (450 μL), the probe was excited by a xenon lamp at a wavelength of 360 nm. Through an optical wavelength filter, the apparatus collects the fluorescence emitted from the Indo-1 at two different wavelengths: 405±10 nm and 485±10 nm. The first wavelength represents the fluorescence of the probe bound to calcium and the second wavelength represents the fluorescence of the free probe. The ratio of these two wavelengths reflects the concentration of intracellular calcium. It is thus possible to observe calcium transients in ventricular myocytes systole but also to observe the diastolic calcium when the stimulation is stopped.
To measure the contraction, striation of cardiac cells due to the presence of sarcomeres was used. […] The recorded signal is similar to a sine function. […]
Thus, to evaluate the potential RyR stabilizing effect of the 4-F4T-neuroprostane derivatives (compounds III and IV), the compounds were applied, and the percentage of arrhythmic cells was measured.

The subject of a further assay is RyR2. Conditions: previously reported (ref. 21); cited from earlier work.

SMILES strings stand for the structures. Entries after “also recorded” stand apart in the source; their conditions may differ.

Consider 4 compounds from patent publication US20260373164A1, “4(RS)-4-F4-NEUROPROSTANE DERIVATIVES (4-F4T-NEUROP) AND THEIR USE IN TREATING VENTILATOR INDUCED DIAPHRAGMATIC DYSFUNCTION AND OTHER DISEASES” (INSTITUT NATIONAL DE LA SANTÉ ET DE LA RECHERCHE MÉDICALE, priority 2022, published 2026).

With `CC/C=C\C/C=C\C[C@@H]1[C@H](/C=C/C(O)CCC(=O)O)[C@@H](O)C[C@H]1O` (mixture of isomers) [compound III, (E)-6-((1S,2R,3R,5S)-3,5-dihydroxy-2-((2Z,5Z)-octa-2,5-dien-1-yl)cyclopentyl)-4-hydroxyhex-5-enoic Acid], the “anti-arrhythmic properties (ryanodine dependent arrhythmic cells)” value in assay [1] was “show anti-arrhythmic properties indicative of an interaction with the RyR”.

Take `CC/C=C\C/C=C\C/C=C\C[C@H]1CC[C@H](O)[C@H]1/C=C/C(O)CCC(=O)O` (some centres unmarked) [compound IV]: the “anti-arrhythmic properties (ryanodine dependent arrhythmic cells)” value in assay [1] is on record as “show anti-arrhythmic properties indicative of an interaction with the RyR”.

As for `CC/C=C\C/C=C\C/C=C\C/C=C\C/C=C\C/C=C\CCC(=O)O` [DHA, docosahaenoic acid], in the assay with RyR2, the “cardiac anti-arrhythmic effect, RyR2 stabilization” value was “could exert a cardiac anti-arrhythmic effect due to a stabilization of the cardiac isoform of ryanodine receptor, RyR2”.

Consider `CC(C)NCC(O)c1ccc(O)c(O)c1` (centres unmarked) [isoproterenol], for which, in assay [1], the amplitude of contractions result was “increase in the amplitude of contractions” and the “extrasystole ventricular contraction (ESV)” value is “promotes the development of ESV; also recorded: promote the development of ExtraSystole Ventricular contraction (ESV)”.
